Experiments:
human DPP1 enzyme = human DPP1 enzyme (Homo sapiens, UniProt P53634); assay: Human DPP1 Enzyme IC50 Assay; format: biochemical; set-up: was first proteolytically processed into its mature form using recombinant human cathepsin L; purchased R&D Systems; details: activated recombinant human DPP1, 400 μM H-Gly-Arg-AMC, 10 minutes pre-incubation at 37° C., pH 6.0; average of n runs; read-out: Avg. IC50 (Human DPP1 enzyme IC50 value ranges)
Experimental: Example 97. Human DPP1 Enzyme IC50 Assay
Recombinant human DPP1 enzyme (R&D Systems; Minneapolis, MN) was first proteolytically processed into its mature form using recombinant human cathepsin L (R&D Systems) in a buffer consisting of 20 mM citric acid pH 4.5, 150 mM NaCl, 1 mM EDTA and 10 mM DTT. Test articles were applied to activated human DPP1 enzyme in Assay Buffer (25 mM MES pH 6.0, 50 mM NaCl, 5 mM DTT) in a total reaction volume of 125 μL. 25 μL of compound in Assay Buffer plus 5% DMSO was first added to 50 μL of activated human DPP1 enzyme at a concentration of 1 ng/μL and allowed to pre-incubate for 10 minutes at 37° C. after which 50 μL of 1000 μM H-Gly-Arg-AMC substrate (Bachem; St. Torrance, CA) was added, giving final substrate concentration of 400 μM and a final DMSO concentration of 1%. Substrate cleavage was measured for 90 minutes at 37° C., with fluorescence at Excitation/Emission 350/450 nm measured every 5 minutes. DPP1 concentration was interpolated based on its activity relative to a standard curve of activated human recombinant DPP1 enzyme. IC50 values for each compound were calculated via the XLFit (IDBS Version 5.3.1.3) Add-On to Microsoft Excel using the four parameter fit equation y={A+[(B−A)]/[1+((C/x)^D)]}, which appears as equation number 205 (4 Parameter Logistic Model or Sigmoidal Dose-Response Model) in XLFit. Default constraints were used for each Parameter. IC50 was defined as the compound concentration at which 50% of enzyme activity was inhibited when compared to the no-compound control.

DPP1 in HL-60 cells = DPP1 in HL-60 cells (Homo sapiens, UniProt P53634); assay: DPP1 Cell IC50 assay; format: cell-based; set-up: host or cells: HL-60 cells; details: 60 min pre-incubation, H-Gly-Phe-AFC substrate, average of n runs, read-out: Avg. IC50 (DPP1 Cell IC50 value ranges)
Experimental: Example 99. DPP1 Cell IC50 assay
HL-60 cells (ATCC; Manassas, VA) were maintained in RPMI-1640 supplemented with 20% heat-inactivated FBS and 1× Antibiotic Antimycotic (Cytiva; Marlborough, MA). Media was changed every three to four days and cells were not allowed to exceed 1×10^6 cells per mL. Prior to assay, cells were collected by centrifugation at 500 rcf for 3 minutes, resuspended in PBS and counted. Cells were diluted in PBS to a concentration of 5×10^5 live cells per mL and transferred to black 96-well plates for assay, 60 μL per well. Test articles were diluted in PBS plus 0.5% DMSO, and 20 μL was added to each assay well. Compound was allowed to pre-incubate with cells with gentle shaking at 100 rpm for 60 minutes at 37° C. in a cell culture incubator maintained at 5% CO2, after which 20 μL of 500 μM H-Gly-Phe-AFC substrate (MP Biomedicals; Solon, OH) was added to each well. Plates were returned to the incubator with shaking at 100 rpm for 30 minutes, after which fluorescence was measured at Excitation/Emission 400/505 nm. % Inhibition was calculated from RFU values compared to control cell wells that received only PBS plus 0.5% DMSO. IC50 values for each compound were calculated via the XLFit (IDBS Version 5.3.1.3) Add-On to Microsoft Excel using the four parameter fit equation y=(A+((B−A)/(1+((C/x)^D)))), which appears as equation number 205 (4 Parameter Logistic Model or Sigmoidal Dose-Response Model) in XLFit. IC50 was defined as the compound concentration at which 50% of enzyme activity was inhibited when compared to the no-compound control.

Chain of DPP1 in HL-60 cells (P53634 25-463): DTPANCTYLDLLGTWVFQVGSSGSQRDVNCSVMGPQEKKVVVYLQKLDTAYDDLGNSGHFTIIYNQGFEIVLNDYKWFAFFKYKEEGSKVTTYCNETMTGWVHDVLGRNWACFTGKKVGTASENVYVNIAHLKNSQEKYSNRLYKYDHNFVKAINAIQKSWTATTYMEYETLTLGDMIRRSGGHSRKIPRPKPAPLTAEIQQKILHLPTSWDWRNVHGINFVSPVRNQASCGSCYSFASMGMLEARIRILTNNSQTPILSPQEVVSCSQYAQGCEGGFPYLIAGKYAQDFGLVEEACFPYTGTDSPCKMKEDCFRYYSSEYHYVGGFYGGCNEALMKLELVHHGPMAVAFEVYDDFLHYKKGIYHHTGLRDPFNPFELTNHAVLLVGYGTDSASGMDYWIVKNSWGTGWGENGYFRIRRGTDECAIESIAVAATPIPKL
Chain of human DPP1 enzyme (P53634 25-134 limits assumed): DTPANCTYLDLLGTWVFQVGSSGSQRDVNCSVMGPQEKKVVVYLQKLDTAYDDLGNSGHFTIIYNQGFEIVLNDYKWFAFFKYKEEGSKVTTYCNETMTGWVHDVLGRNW
Chain of human DPP1 enzyme (P53634 231-394 limits assumed): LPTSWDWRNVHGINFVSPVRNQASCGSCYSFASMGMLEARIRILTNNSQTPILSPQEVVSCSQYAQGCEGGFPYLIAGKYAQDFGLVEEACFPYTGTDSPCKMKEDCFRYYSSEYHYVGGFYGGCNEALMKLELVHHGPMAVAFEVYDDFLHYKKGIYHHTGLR
Chain of human DPP1 enzyme (P53634 395-463 limits assumed): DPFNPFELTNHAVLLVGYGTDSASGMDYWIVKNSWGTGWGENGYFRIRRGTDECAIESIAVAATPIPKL

IC50 (human DPP1 enzyme) | IC50 (DPP1 in HL-60 cells) | Compound
> 15 nM | > 2.5 nM | CN1C(=O)C2(CCN(C3CCOCC3)CC2)c2cc(-c3ccc(C[C@@H](C#N)NC(=O)[C@@H]4CNCCCO4)cc3)ccc21 [Compound 35]
> 15 nM | > 2.5 nM | N#C[C@H](Cc1ccc(-c2ccc3c(c2)CCS3)cc1)NC(=O)[C@@H]1CNCCCO1 [Compound A4, (2S)—N-[(1S)-1-cyano-2-[4-(2,3-dihydro-1-benzothiophen-5-yl)phenyl]ethyl]-1,4-oxazepane-2-carboxamide]
> 15 nM | > 2.5 nM | N#C[C@H](Cc1ccc(-c2nc3c(s2)CS(=O)(=O)CC3)cc1)NC(=O)[C@@H]1CNCCCO1 [Compound A6]
> 15 nM | > 2.5 nM | N#C[C@H](Cc1ccc(-c2cc3ccncc3[nH]2)cc1)NC(=O)[C@@H]1CNCCCO1 [Compound A7, (2S)—N-[(1S)-1-cyano-2-(4-{1H-pyrrolo[2,3-c]pyridin-2-yl}phenyl)ethyl]-1,4-oxazepane-2-carboxamide]
> 15 nM | > 2.5 nM | N#C[C@H](Cc1ccc(-c2cnc3c(c2)COCCN3)cc1)NC(=O)[C@@H]1CNCCCO1 [Compound A9, (2S)—N-[(1S)-1-cyano-2-(4-{1H,2H,3H,5H-pyrido[2,3-e][1,4]oxazepin-7-yl}phenyl)ethyl]-1,4-oxazepane-2-carboxamide]
> 15 nM | > 2.5 nM | N#C[C@H](Cc1ccc(-c2cc3n(c2)CCCNC3=O)cc1)NC(=O)[C@@H]1CNCCCO1 [Compound A12, (2S)—N-[(1S)-1-cyano-2-(4-{1-oxo-2H,3H,4H,5H-pyrrolo[1,2-a][1,4]diazepin-8-yl}phenyl)ethyl]-1,4-oxazepane-2-carboxamide]
> 15 nM | > 2.5 nM | Cn1c(=O)ccc2ncc(-c3ccc(C[C@@H](C#N)NC(=O)[C@@H]4CNCCCO4)cc3)cc21 [Compound A18, (2S)—N-[(1S)-1-cyano-2-[4-(5-methyl-6-oxo-1,5-naphthyridin-3-yl)phenyl]ethyl]-1,4-oxazepane-2-carboxamide]
> 15 nM | > 2.5 nM | Cc1c(C(N)=O)sc2ncc(-c3ccc(C[C@@H](C#N)NC(=O)[C@@H]4CNCCCO4)cc3)cc12 [Compound A19, (2S)—N-[(1S)-2-(4-{2-carbamoyl-3-methylthieno[2,3-b]pyridin-5-yl}phenyl)-1-cyanoethyl]-1,4-oxazepane-2-carboxamide]
> 15 nM | > 2.5 nM | N#C[C@H](Cc1ccc(-c2ccc3c(c2)N(C(N)=O)CCC3)cc1)NC(=O)[C@@H]1CNCCCO1 [Compound A20, 7-{4-[(2S)-2-cyano-2-[(2S)-1,4-oxazepan-2-ylformamido]ethyl]phenyl}-3,4-dihydro-2H-quinoline-1-carboxamide]
> 15 nM | 1 to 2.5 nM | CO[C@@H]1CCNC[C@@H](C(=O)N[C@H](C#N)Cc2ccc(-c3cc4c(C)nc(C)cn4c3)cc2)OC1 [Compound A32, (2S,7R)—N-[(1S)-1-cyano-2-(4-{1,3-dimethylpyrrolo[1,2-a]pyrazin-7-yl}phenyl)ethyl]-7-methoxy-1,4-oxazocane-2-carboxamide]
< 5 nM | > 2.5 nM | CO[C@@H]1CCNC[C@@H](C(=O)N[C@H](C#N)Cc2ccc(-c3ccc4c(n3)CCCN4)cc2)OC1 [Compound A33, (2S,7R)—N—((S)-1-cyano-2-(4-(5,6,7,8-tetrahydro-1,5-naphthyridin-2-yl)phenyl)ethyl)-7-methoxy-1,4-oxazocane-2-carboxamide]
> 15 nM | 1 to 2.5 nM | CO[C@@H]1CCNC[C@@H](C(=O)N[C@H](C#N)Cc2ccc(-c3cc4c(C)nc(C)cn4c3)s2)OC1 [Compound A34, (2S,7R)—N-[(1S)-1-cyano-2-(5-{1,3-dimethylpyrrolo[1,2-a]pyrazin-7-yl}thiophen-2-yl)ethyl]-7-methoxy-1,4-oxazocane-2-carboxamide]
5 to 15 nM | 1 to 2.5 nM | CO[C@@H]1CCNC[C@@H](C(=O)N[C@H](C#N)Cc2ccc(-c3cc4c(C)nc(C)cn4c3)c(F)c2)OC1 [Compound A35, (2S,7R)—N-[(1S)-1-cyano-2-(4-{1,3-dimethylpyrrolo[1,2-a]pyrazin-7-yl}-3-fluorophenyl)ethyl]-7-methoxy-1,4-oxazocane-2-carboxamide]
> 15 nM | > 2.5 nM | CO[C@@H]1CCNC[C@@H](C(=O)N[C@H](C#N)Cc2ncc(-c3ccc4c(F)nn(C)c4c3)s2)OC1 [Compound A36, (2S,7R)—N-[(1S)-1-cyano-2-[5-(3-fluoro-1-methylindazol-6-yl)-1,3-thiazol-2-yl]ethyl]-7-methoxy-1,4-oxazocane-2-carboxamide]
> 15 nM | > 2.5 nM | CO[C@@H]1CCNC[C@@H](C(=O)N[C@H](C#N)Cc2ncc(-c3ccc4c(n3)CCCN4)s2)OC1 [Compound A37, (2S,7R)—N—((S)-1-cyano-2-(5-(5,6,7,8-tetrahydro-1,5-naphthyridin-2-yl)thiazol-2-yl)ethyl)-7-methoxy-1,4-oxazocane-2-carboxamide]
> 15 nM | > 2.5 nM | CO[C@@H]1CCNC[C@@H](C(=O)NC(C#N)Cc2cnc(-c3ccc4c(n3)CCCN4)s2)OC1 (stereo partly drawn) [Compound A39, (2S,7R)—N-{1-cyano-2-[2-(5,6,7,8-tetrahydro-1,5-naphthyridin-2-yl)-1,3-thiazol-5-yl]ethyl}-7-methoxy-1,4-oxazocane-2-carboxamide]
> 15 nM | > 2.5 nM | CN1CCCc2ncc(-c3ccc(C[C@@H](C#N)NC(=O)[C@@H]4CNCCCO4)cc3)cc21 [Compound A40, (2S)—N-[(1S)-1-cyano-2-[4-(5-methyl-7,8-dihydro-6H-1,5-naphthyridin-3-yl)phenyl]ethyl]-1,4-oxazepane-2-carboxamide]
> 15 nM | > 2.5 nM | N#C[C@H](Cc1ccc(-c2cnc3c(c2)NCCC3)cc1)NC(=O)[C@@H]1CNCCCO1 [Compound A41, (2S)—N-[(1S)-1-cyano-2-[4-(5,6,7,8-tetrahydro-1,5-naphthyridin-3-yl)phenyl]ethyl]-1,4-oxazepane-2-carboxamide]
> 15 nM | 1 to 2.5 nM | CO[C@H]1CCO[C@H](C(=O)N[C@H](C#N)Cc2ccc(-c3cc4c(C)nc(C)cn4c3)cc2)CNC1 [Compound A42, (2S,6S)—N-[(1S)-1-cyano-2-(4-{1,3-dimethylpyrrolo[1,2-a]pyrazin-7-yl}phenyl)ethyl]-6-methoxy-1,4-oxazocane-2-carboxamide]
> 15 nM | > 2.5 nM | CO[C@H]1CCO[C@H](C(=O)N[C@H](C#N)Cc2ccc(-c3ccc4c(n3)CCCN4)cc2)CNC1 [Compound A43, (2S,6S)—N—((S)-1-cyano-2-(4-(5,6,7,8-tetrahydro-1,5-naphthyridin-2-yl)phenyl)ethyl)-6-methoxy-1,4-oxazocane-2-carboxamide]
> 15 nM | > 2.5 nM | CO[C@H]1CCO[C@H](C(=O)N[C@H](C#N)Cc2ccc(-c3cc4c(C)nc(C)cn4c3)s2)CNC1 [Compound A44, (2S,6S)—N-[(1S)-1-cyano-2-(5-{1,3-dimethylpyrrolo[1,2-a]pyrazin-7-yl}thiophen-2-yl)ethyl]-6-methoxy-1,4-oxazocane-2-carboxamide]
5 to 15 nM | 1 to 2.5 nM | CO[C@H]1CCO[C@H](C(=O)N[C@H](C#N)Cc2ccc(-c3cc4c(C)nc(C)cn4c3)cc2F)CNC1 [Compound A48, (2S,6S)—N-[(1S)-1-cyano-2-(4-{1,3-dimethylpyrrolo[1,2-a]pyrazin-7-yl}-2-fluorophenyl)ethyl]-6-methoxy-1,4-oxazocane-2-carboxamide]
